Source: patent publication US5723458A, “Hypolipidaemic compounds” (Glaxo Wellcome Inc., priority 1993, dated 1998)

Tested on: rat distal ileal brush border membrane vesicles (active, sodium-dependent 3H taurocholate uptake)
Assay: In vitro inhibition of bile acid uptake
Format: biochemical
Conditions: 30 seconds at 24° C., versus control active uptake
Method: In vitro inhibition of bile acid uptake
Freshly prepared rat distal ileal brush border membrane vesicles (about […] vesicle protein) were incubated for 30 seconds at 24° C. in an incubation mixture comprising […] ^3 H taurocholate, 100 mM NaCl (or KCl) and 80 mM mannitol in 20 mM Hepes Tris pH 7.4. Each test compound was dissolved in ethanol (or water) and then diluted with incubation mixture to an ethanol concentration of not more than 1% v/v. The incubation was terminated by rapid dilution and filtration and the filter washed with an ice-cold isotonic sodium-free buffer.
The uptake of ^3 H taurocholate was measured by the radioactivity remaining on the filter and converted to pmoles/mg vesicle protein. The active, ie sodium-dependent, uptake was obtained by subtracting the passive uptake measured in 100 mM KCl from the total uptake measured in 100 mM NaCl. The active uptake for each test compound was compared with a control active uptake and the results expressed as % inhibition of bile acid uptake.
Data is given below for % inhibition of bile acid uptake at various concentrations of compounds of the invention.

Compound | % inhibition of bile acid uptake (3 μM test compound) | % inhibition of bile acid uptake (10 μM test compound) | % inhibition of bile acid uptake (0.3 μM test compound) | % inhibition of bile acid uptake (1 μM test compound)
CC[C@@H](O)C[C@@]1(CC)CS(=O)(=O)c2ccccc2[C@H](c2ccccc2)N1 (racemic) [Example 1, (+-)-trans-3-ethyl-2,3,4,5-tetrahydro-3-((2R)-2hydroxybutyl)-5-phenyl-1,4-benzothiazepine 1,1-dioxide] | 36% | 69% | – | –
CC[C@@H](O)C[C@@]1(CC)CS(=O)(=O)c2cc(OC)ccc2[C@H](c2ccccc2)N1 (racemic) [Example 2] | 60% | 83% | 22% | 44%
CC[C@]1(C[C@H](O)CC(F)(F)F)CS(=O)(=O)c2ccccc2[C@H](c2ccccc2)N1 (racemic) [Example 11, (+-)-trans-1-(3-ethyl-2,3,4,5-tetrahydro-5-phenyl-1,4-benzothiazepin-3-yl)-4,4,4-trifluoro-(2S)-2-butanol-S,S-dioxide] | 63% | 85% | 13% | 31%
CC[C@]1(C[C@H](O)CC(F)(F)F)CS(=O)(=O)c2ccc(OC)cc2[C@H](c2ccccc2)N1 (racemic) [Example 12, (+-)-trans-1-(3-ethyl-2,3,4,5-tetrahydro-7-methoxy-5-phenyl-1,4-benzothiazepin-3-yl)-4,4,4-trifluoro-(2S)-2-butanol-S,S-dioxide] | 86% | 95% | 47% | 72%
CCC1NC(c2ccc(O)cc2)c2ccccc2S(=O)(=O)C1C[C@@H](O)CC (mixture of isomers) [Example 24, (+-)-Trans-3-Ethyl-2,3,4,5-tetrahydro-2-(2(S)-2-hydroxybutyl)-5-(4-hydroxyphenyl)-1,4-benzothiazepine 1,1-dioxide] | – | 23% | – | –
